# According to patent publication US20230301300A1, “HERBICIDAL COMPOSITIONS” (SYNGENTA CROP PROTECTION AG, priority 2020, published 2023):
# How the values were obtained:
# Experiment in all cases: B2 Post-Emergence Efficacy - Test 2
# Format in all cases: in vivo
# Sida spinosa (SIDSP) = settings: 15 days after application, 0-100 scale
# Procedure: (§1) Seeds of a variety of test species (see Table B1) were sown in standard soil in pots. After cultivation for 12 days (post-emergence) under controlled conditions in a glasshouse (at 24/18° C. or 20/16° C., at day/night; 16 hours light; 65% humidity), the plants were sprayed with an aqueous spray solution derived from the formulation of the technical active ingredient dissolved in IF50 (see Table B2 for composition) and adjuvant (Genapol X080) was added to the spray solution at a rate of 0.2% v/v.
# (§2) After application, the test plants were grown in a glasshouse under controlled conditions (as above) and watered twice daily. Herbicidal activity was evaluated 15 days after application on a 0-100 scale. The results, where 0=no damage to test plant and 100=total kill of test plant are shown below in Tables 8 to 11.
# [1] = tested on: Panicum miliaceum (PANMI); settings: 15 days after application, 0=no damage, 100=total kill
# Procedure: as §1, §2
# [2] = tested on: Alopecurus myosuroides (ALOMY); settings: 15 days after application, 0-100 scale
# Procedure: as §1, §2
# Orysa sativa (ORYSA) = settings: 15 days after application; for Herbicidal activity ORYSA: 0-100 scale; for Herbicidal activity on a 0-100 scale, ORYSA: 0=no damage, 100=total kill
# Procedure: as §1, §2
# Bromus tectorum (BROTE) = settings: 15 days after application, 0-100 scale
# Procedure: as §1, §2
# [3] = tested on: Chenopodium album (CHEAL); settings: 15 days after application, 0-100 scale
# Procedure: as §1, §2
# Brassica napus (BRSNN) = settings: 15 days after application, 0-100 scale
# Procedure: as §1, §2
# [4] = tested on: Xanthium strumarium (XANST); settings: 15 days after application, 0-100 scale
# Procedure: as §1, §2
# Glycine max (GLXMA) = settings: 15 days after application; for Herbicidal activity GLXMA: 0-100 scale; for Herbicidal activity on a 0-100 scale, GLXMA: 0=no damage, 100=total kill
# Procedure: as §1, §2
# Zea mays (ZEAMX) = settings: 15 days after application; for Herbicidal activity ZEAMX: 0-100 scale; for Herbicidal activity on a 0-100 scale, ZEAMX: 0=no damage, 100=total kill
# Procedure: as §1, §2
# Stellaria media (STEME) = settings: 15 days after application, 0-100 scale
# Procedure: as §1, §2
# [5] = tested on: Abutilon theophrasti (ABUTH); settings: 15 days after application, 0-100 scale
# Procedure: as §1, §2
# [6] = tested on: Euphorbia hetrophylla (EPHHL); settings: 15 days after application, 0-100 scale
# Procedure: as §1, §2
# Lolium perenne (LOLPE) = settings: 15 days after application, 0-100 scale
# Procedure: as §1, §2
# [7] = tested on: Echinochloa crus galli (ECHCG); settings: 15 days after application, 0=no damage, 100=total kill
# Procedure: as §1, §2
# Sorghum bicolour (SORVU) = settings: 15 days after application, 0=no damage, 100=total kill
# Procedure: as §1, §2
# Poa annua (POAAN) = settings: 15 days after application, 0-100 scale
# Procedure: as §1, §2
smiles,measurement,setting,value
"Cc1nn(C)c(=O)c(-c2c(F)ccc(Cl)c2CCc2ccc(C#N)cc2)c1O [Compound 1.024, 4-[3-chloro-6-fluoro-2-[2-[4-(cyano)phenyl]ethyl]phenyl]-5-hydroxy-2,6-dimethyl-pyridazin-3-one]",Herbicidal activity SIDSP,Sida spinosa (SIDSP); 15 g/Ha,80
same,Herbicidal activity SIDSP,Sida spinosa (SIDSP); 30 g/Ha,90
same,Herbicidal activity SIDSP,Sida spinosa (SIDSP); 60 g/Ha,90
same,Herbicidal activity SIDSP,Sida spinosa (SIDSP); 125 g/Ha,100
same,Herbicidal activity SIDSP,Sida spinosa (SIDSP); 250 g/Ha,100
same,Herbicidal activity SIDSP,Sida spinosa (SIDSP); 500 g/Ha,100
same,"Herbicidal activity on a 0-100 scale, PANMI",[1]; 15 g/Ha,0
same,"Herbicidal activity on a 0-100 scale, PANMI",[1]; 30 g/Ha,70
same,"Herbicidal activity on a 0-100 scale, PANMI",[1]; 60 g/Ha,80
same,"Herbicidal activity on a 0-100 scale, PANMI",[1]; 125 g/Ha,90
same,"Herbicidal activity on a 0-100 scale, PANMI",[1]; 250 g/Ha,90
same,"Herbicidal activity on a 0-100 scale, PANMI",[1]; 500 g/Ha,100
same,Herbicidal activity ALOMY,[2]; 15 g/Ha,10
same,Herbicidal activity ALOMY,[2]; 30 g/Ha,30
same,Herbicidal activity ALOMY,[2]; 60 g/Ha,50
same,Herbicidal activity ALOMY,[2]; 125 g/Ha,70
same,Herbicidal activity ALOMY,[2]; 250 g/Ha,70
same,Herbicidal activity ALOMY,[2]; 500 g/Ha,70
same,Herbicidal activity ORYSA,Orysa sativa (ORYSA); 15 g/Ha,0
same,"Herbicidal activity on a 0-100 scale, ORYSA",Orysa sativa (ORYSA); 15 g/Ha,0
same,Herbicidal activity ORYSA,Orysa sativa (ORYSA); 30 g/Ha,0
same,"Herbicidal activity on a 0-100 scale, ORYSA",Orysa sativa (ORYSA); 30 g/Ha,0
same,Herbicidal activity ORYSA,Orysa sativa (ORYSA); 60 g/Ha,0
same,"Herbicidal activity on a 0-100 scale, ORYSA",Orysa sativa (ORYSA); 60 g/Ha,0
same,Herbicidal activity ORYSA,Orysa sativa (ORYSA); 125 g/Ha,0
same,"Herbicidal activity on a 0-100 scale, ORYSA",Orysa sativa (ORYSA); 125 g/Ha,0
same,Herbicidal activity ORYSA,Orysa sativa (ORYSA); 250 g/Ha,20
same,"Herbicidal activity on a 0-100 scale, ORYSA",Orysa sativa (ORYSA); 250 g/Ha,20
same,Herbicidal activity ORYSA,Orysa sativa (ORYSA); 500 g/Ha,40
same,"Herbicidal activity on a 0-100 scale, ORYSA",Orysa sativa (ORYSA); 500 g/Ha,40
same,Herbicidal activity BROTE,Bromus tectorum (BROTE); 15 g/Ha,0
same,Herbicidal activity BROTE,Bromus tectorum (BROTE); 30 g/Ha,0
same,Herbicidal activity BROTE,Bromus tectorum (BROTE); 60 g/Ha,10
same,Herbicidal activity BROTE,Bromus tectorum (BROTE); 125 g/Ha,20
same,Herbicidal activity BROTE,Bromus tectorum (BROTE); 250 g/Ha,40
same,Herbicidal activity BROTE,Bromus tectorum (BROTE); 500 g/Ha,70
same,Herbicidal activity CHEAL,[3]; 15 g/Ha,60
same,Herbicidal activity CHEAL,[3]; 30 g/Ha,90
same,Herbicidal activity CHEAL,[3]; 60 g/Ha,90
same,Herbicidal activity CHEAL,[3]; 125 g/Ha,90
same,Herbicidal activity CHEAL,[3]; 250 g/Ha,90
same,Herbicidal activity CHEAL,[3]; 500 g/Ha,100
same,Herbicidal activity BRSNN,Brassica napus (BRSNN); 15 g/Ha,80
same,Herbicidal activity BRSNN,Brassica napus (BRSNN); 30 g/Ha,90
same,Herbicidal activity BRSNN,Brassica napus (BRSNN); 60 g/Ha,90
same,Herbicidal activity BRSNN,Brassica napus (BRSNN); 125 g/Ha,90
same,Herbicidal activity BRSNN,Brassica napus (BRSNN); 250 g/Ha,90
same,Herbicidal activity BRSNN,Brassica napus (BRSNN); 500 g/Ha,90
same,Herbicidal activity XANST,[4]; 60 g/Ha,80
same,Herbicidal activity XANST,[4]; 125 g/Ha,80
same,Herbicidal activity XANST,[4]; 500 g/Ha,100
same,Herbicidal activity GLXMA,Glycine max (GLXMA); 15 g/Ha,70
same,"Herbicidal activity on a 0-100 scale, GLXMA",Glycine max (GLXMA); 15 g/Ha,70
same,Herbicidal activity GLXMA,Glycine max (GLXMA); 30 g/Ha,80
same,"Herbicidal activity on a 0-100 scale, GLXMA",Glycine max (GLXMA); 30 g/Ha,80
same,Herbicidal activity GLXMA,Glycine max (GLXMA); 60 g/Ha,90
same,"Herbicidal activity on a 0-100 scale, GLXMA",Glycine max (GLXMA); 60 g/Ha,90
same,Herbicidal activity GLXMA,Glycine max (GLXMA); 125 g/Ha,90
same,"Herbicidal activity on a 0-100 scale, GLXMA",Glycine max (GLXMA); 125 g/Ha,90
same,Herbicidal activity GLXMA,Glycine max (GLXMA); 250 g/Ha,100
same,"Herbicidal activity on a 0-100 scale, GLXMA",Glycine max (GLXMA); 250 g/Ha,100
same,Herbicidal activity GLXMA,Glycine max (GLXMA); 500 g/Ha,100
same,"Herbicidal activity on a 0-100 scale, GLXMA",Glycine max (GLXMA); 500 g/Ha,100
same,Herbicidal activity ZEAMX,Zea mays (ZEAMX); 15 g/Ha,0
same,"Herbicidal activity on a 0-100 scale, ZEAMX",Zea mays (ZEAMX); 15 g/Ha,0
same,Herbicidal activity ZEAMX,Zea mays (ZEAMX); 30 g/Ha,10
same,"Herbicidal activity on a 0-100 scale, ZEAMX",Zea mays (ZEAMX); 30 g/Ha,10
same,Herbicidal activity ZEAMX,Zea mays (ZEAMX); 60 g/Ha,20
same,"Herbicidal activity on a 0-100 scale, ZEAMX",Zea mays (ZEAMX); 60 g/Ha,20
same,Herbicidal activity ZEAMX,Zea mays (ZEAMX); 125 g/Ha,40
same,"Herbicidal activity on a 0-100 scale, ZEAMX",Zea mays (ZEAMX); 125 g/Ha,40
same,Herbicidal activity ZEAMX,Zea mays (ZEAMX); 250 g/Ha,70
same,"Herbicidal activity on a 0-100 scale, ZEAMX",Zea mays (ZEAMX); 250 g/Ha,70
same,Herbicidal activity ZEAMX,Zea mays (ZEAMX); 500 g/Ha,100
same,"Herbicidal activity on a 0-100 scale, ZEAMX",Zea mays (ZEAMX); 500 g/Ha,100
same,Herbicidal activity STEME,Stellaria media (STEME); 15 g/Ha,90
same,Herbicidal activity STEME,Stellaria media (STEME); 30 g/Ha,90
same,Herbicidal activity STEME,Stellaria media (STEME); 60 g/Ha,90
same,Herbicidal activity STEME,Stellaria media (STEME); 125 g/Ha,90
same,Herbicidal activity STEME,Stellaria media (STEME); 250 g/Ha,90
same,Herbicidal activity STEME,Stellaria media (STEME); 500 g/Ha,100
same,Herbicidal activity ABUTH,[5]; 15 g/Ha,90
same,Herbicidal activity ABUTH,[5]; 30 g/Ha,90
same,Herbicidal activity ABUTH,[5]; 60 g/Ha,100
same,Herbicidal activity ABUTH,[5]; 125 g/Ha,100
same,Herbicidal activity ABUTH,[5]; 250 g/Ha,100
same,Herbicidal activity ABUTH,[5]; 500 g/Ha,100
same,Herbicidal activity EPHHL,[6]; 15 g/Ha,70
same,Herbicidal activity EPHHL,[6]; 30 g/Ha,90
same,Herbicidal activity EPHHL,[6]; 60 g/Ha,90
same,Herbicidal activity EPHHL,[6]; 125 g/Ha,90
same,Herbicidal activity EPHHL,[6]; 250 g/Ha,100
same,Herbicidal activity EPHHL,[6]; 500 g/Ha,100
same,Herbicidal activity LOLPE,Lolium perenne (LOLPE); 15 g/Ha,10
same,Herbicidal activity LOLPE,Lolium perenne (LOLPE); 30 g/Ha,70
same,Herbicidal activity LOLPE,Lolium perenne (LOLPE); 60 g/Ha,70
same,Herbicidal activity LOLPE,Lolium perenne (LOLPE); 125 g/Ha,90
same,Herbicidal activity LOLPE,Lolium perenne (LOLPE); 250 g/Ha,90
same,Herbicidal activity LOLPE,Lolium perenne (LOLPE); 500 g/Ha,90
same,"Herbicidal activity on a 0-100 scale, ECHCG",[7]; 15 g/Ha,70
same,"Herbicidal activity on a 0-100 scale, ECHCG",[7]; 30 g/Ha,80
same,"Herbicidal activity on a 0-100 scale, ECHCG",[7]; 60 g/Ha,80
same,"Herbicidal activity on a 0-100 scale, ECHCG",[7]; 125 g/Ha,90
same,"Herbicidal activity on a 0-100 scale, ECHCG",[7]; 250 g/Ha,90
same,"Herbicidal activity on a 0-100 scale, ECHCG",[7]; 500 g/Ha,100
same,"Herbicidal activity on a 0-100 scale, SORVU",Sorghum bicolour (SORVU); 15 g/Ha,0
same,"Herbicidal activity on a 0-100 scale, SORVU",Sorghum bicolour (SORVU); 30 g/Ha,10
same,"Herbicidal activity on a 0-100 scale, SORVU",Sorghum bicolour (SORVU); 60 g/Ha,70
same,"Herbicidal activity on a 0-100 scale, SORVU",Sorghum bicolour (SORVU); 125 g/Ha,80
same,"Herbicidal activity on a 0-100 scale, SORVU",Sorghum bicolour (SORVU); 250 g/Ha,90
same,"Herbicidal activity on a 0-100 scale, SORVU",Sorghum bicolour (SORVU); 500 g/Ha,100
same,Herbicidal activity POAAN,Poa annua (POAAN); 15 g/Ha,10
same,Herbicidal activity POAAN,Poa annua (POAAN); 30 g/Ha,20
same,Herbicidal activity POAAN,Poa annua (POAAN); 60 g/Ha,30
same,Herbicidal activity POAAN,Poa annua (POAAN); 125 g/Ha,80
same,Herbicidal activity POAAN,Poa annua (POAAN); 250 g/Ha,80
same,Herbicidal activity POAAN,Poa annua (POAAN); 500 g/Ha,90
